Laboratory results from patent US20120157482A1, “COMPOUNDS AND METHODS” (priority 2009, published 2012).
Where a name gives a salt, the structure may show the parent alone.

Target: T1, His-MBP-TEV-Full length human TNNI3K (hTNNI3K) (Homo sapiens, UniProt Q59H18)
T1 construct: His-MBP-TEV-Full length human TNNI3K (hTNNI3K); His (N); TEV cleavage site (N); made in house; host or cells: baculovirus system (printed 'Baculokinase system')
T1 sequence (Q59H18 1-835): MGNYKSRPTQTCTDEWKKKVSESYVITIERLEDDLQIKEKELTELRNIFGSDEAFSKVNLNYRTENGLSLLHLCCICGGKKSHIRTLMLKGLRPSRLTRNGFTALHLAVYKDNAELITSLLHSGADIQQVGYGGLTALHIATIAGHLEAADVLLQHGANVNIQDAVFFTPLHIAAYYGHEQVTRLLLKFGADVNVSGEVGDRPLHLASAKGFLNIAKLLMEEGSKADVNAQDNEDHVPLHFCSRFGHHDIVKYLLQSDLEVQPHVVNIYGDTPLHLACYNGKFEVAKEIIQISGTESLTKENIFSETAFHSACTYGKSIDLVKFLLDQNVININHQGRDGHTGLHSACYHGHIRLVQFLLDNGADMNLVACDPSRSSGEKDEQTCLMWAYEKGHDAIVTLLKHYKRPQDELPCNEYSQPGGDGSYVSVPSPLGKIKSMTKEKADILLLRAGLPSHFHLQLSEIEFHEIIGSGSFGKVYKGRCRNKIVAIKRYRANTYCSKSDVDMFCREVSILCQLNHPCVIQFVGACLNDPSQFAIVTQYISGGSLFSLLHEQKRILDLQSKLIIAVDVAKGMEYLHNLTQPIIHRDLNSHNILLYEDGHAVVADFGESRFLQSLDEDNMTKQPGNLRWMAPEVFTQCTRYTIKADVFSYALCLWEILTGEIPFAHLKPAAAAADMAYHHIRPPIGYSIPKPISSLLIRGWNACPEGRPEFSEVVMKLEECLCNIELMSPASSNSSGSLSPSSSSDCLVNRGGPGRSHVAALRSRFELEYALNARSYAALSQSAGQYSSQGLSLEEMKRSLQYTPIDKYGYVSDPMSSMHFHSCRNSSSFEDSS
Experiment: Fluorescent polarization assay of compound inhibition on hTNNI3K ATP binding (Biological Assay Method I)
Settings: displacement of fluorescent ligand, mean of a minimum of 2 experiments, read-out: mean pXC50 (converted)
Text: Materials: His-MBP-TEV-Full length human TNNI3K (hTNNI3K) was expressed in Baculokinase system and purified from amylase affinity column followed by Superdex200. The fluorescent ligand 5-({[2-({[3-({4-[(5-hydroxy-2-methylphenyl)amino]-2-pyrimidinyl}amino)phenyl]carbonyl}amino)ethyl]amino}carbonyl)-2-(6-hydroxy-3-oxo-3H-xanthen-9-yl)benzoic acid was used. The other buffer components, including MgCl2 (Catalog Number M1028), Bis-Tris (Catalog Number B7535), DTT (Catalog Number D9779) and Chaps (Catalog Number C3023) were purchased from Sigma-Aldrich.
A fluorescent polarization assay was used to determine does response of compound inhibition on hTNNI3K ATP binding. […]
Fifty (50) nL of inhibitors in DMSO (or DMSO controls) were stamped into a 384-well low volume Greiner black plate, followed by addition of 5 μL of Solution 1 to column 18 and 5 μL Solution 2 to columns 1-17 and 19-24 of the plate. […] After that, the fluorescent polarization was measured on Analyst (ex/em: 485/530 nm, Dichroic: 505). […]

SMILES: CNc1cc(Oc2c(C)cc(NC(=O)Nc3cccc(C(F)(F)F)c3)cc2C)ncn1 [Example 5, N-(3,5-dimethyl-4-{[6-(methylamino)-4-pyrimidinyl]oxy}phenyl)-N′-[3-(trifluoromethyl)phenyl]urea trifluoroacetate]
- IC50: 25.1 nM

SMILES: CNc1cc(Oc2ccc(NC(=O)Nc3cccc(C(F)(F)F)c3)cc2F)ncn1 [Example 11, N-(3-fluoro-4-{[6-(methylamino)-4-pyrimidinyl]oxy}phenyl)-N′-[3-(trifluoromethyl)phenyl]urea trifluoroacetate]
- IC50: 25.1 nM
